# Activity calls are given as the source filed them. The rule behind the calls is not given here.
# Experiments:
# [1] = target: Insulin-degrading enzyme (Homo sapiens) (UniProt P14735); assay: Inhibition of human recombinant IDE expressed in Escherichia coli BL21 (DE3) cells using ATTO 655- Cys-Lys-Leu-Val-Phe-Phe-Ala-Glu-Asp-Trp as substrate at 100 uM preincubated for 10 mins followed by substrate addition and measured after 30 mins by spectrophotometric analysis relative to control
# [2] = target: Insulin-degrading enzyme (Homo sapiens) (UniProt P14735); assay: Irreversible inhibition of human recombinant IDE expressed in Escherichia coli BL21 (DE3) cells using ATTO 655- Cys-Lys-Leu-Val-Phe-Phe-Ala-Glu-Asp-Trp as substrate preincubated for 30 mins followed by 100 fold compound dilution by spectrophotometric analysis
# [3] = target: Insulin-degrading enzyme (Homo sapiens) (UniProt P14735); conditions: HepG2, 30 uM
# [4] = target: Insulin-degrading enzyme (Homo sapiens, UniProt P14735, C110L/C171S/C178A/C257V/C414L/C573N/C590S/C789S/C812A/C819A/C904S/C966N/C974A); assay: biochemical
# Insulin-degrading enzyme (Homo sapiens, UniProt P14735, C110L/C171S/C178A/C257V/C414L/C573N/C590S/C789S/C812A/C819A/C904S/C966N/C974A), sequence (P14735 whole entry C110L/C171S/C178A/C257V/C414L/C573N/C590S/C789S/C812A/C819A/C904S/C966N/C974A): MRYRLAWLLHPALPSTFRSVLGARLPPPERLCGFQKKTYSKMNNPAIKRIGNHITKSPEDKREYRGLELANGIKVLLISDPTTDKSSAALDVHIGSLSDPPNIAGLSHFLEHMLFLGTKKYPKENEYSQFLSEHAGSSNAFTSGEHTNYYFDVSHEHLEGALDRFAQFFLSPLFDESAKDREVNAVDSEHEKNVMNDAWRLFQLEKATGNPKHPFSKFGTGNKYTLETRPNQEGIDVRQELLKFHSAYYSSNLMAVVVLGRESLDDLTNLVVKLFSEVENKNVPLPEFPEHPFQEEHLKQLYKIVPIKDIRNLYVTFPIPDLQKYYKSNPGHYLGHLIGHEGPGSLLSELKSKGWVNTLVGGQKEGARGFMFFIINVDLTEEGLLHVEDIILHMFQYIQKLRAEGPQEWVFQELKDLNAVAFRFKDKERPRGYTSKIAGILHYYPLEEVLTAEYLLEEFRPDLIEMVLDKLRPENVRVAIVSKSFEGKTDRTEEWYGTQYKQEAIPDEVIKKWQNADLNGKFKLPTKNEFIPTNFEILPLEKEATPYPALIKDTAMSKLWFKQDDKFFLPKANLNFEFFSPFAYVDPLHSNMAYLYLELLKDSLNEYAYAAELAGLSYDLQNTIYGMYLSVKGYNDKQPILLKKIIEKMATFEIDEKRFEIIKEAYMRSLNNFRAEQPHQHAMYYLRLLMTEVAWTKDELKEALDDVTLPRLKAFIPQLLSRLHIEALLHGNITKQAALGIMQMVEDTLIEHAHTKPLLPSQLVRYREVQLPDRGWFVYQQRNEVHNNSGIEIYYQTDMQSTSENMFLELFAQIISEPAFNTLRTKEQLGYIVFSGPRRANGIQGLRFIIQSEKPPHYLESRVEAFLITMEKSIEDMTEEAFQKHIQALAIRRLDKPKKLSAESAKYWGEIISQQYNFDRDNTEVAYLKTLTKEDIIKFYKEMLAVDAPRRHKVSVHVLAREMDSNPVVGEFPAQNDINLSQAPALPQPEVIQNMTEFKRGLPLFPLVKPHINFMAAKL
# [5] = target: Insulin-degrading enzyme (Homo sapiens) (UniProt P14735); conditions: 2 mM
# [6] = target: T1, Insulin-degrading enzyme (Homo sapiens, UniProt P14735); assay: Inhibition of human recombinant IDE expressed in Escherichia coli BL21 (DE3) cells using ATTO 655- Cys-Lys-Leu-Val-Phe-Phe-Ala-Glu-Asp-Trp as substrate preincubated for 10 mins followed by substrate addition and measured after 30 mins by spectrophotometric analysis
# T1 sequence (P14735 whole entry): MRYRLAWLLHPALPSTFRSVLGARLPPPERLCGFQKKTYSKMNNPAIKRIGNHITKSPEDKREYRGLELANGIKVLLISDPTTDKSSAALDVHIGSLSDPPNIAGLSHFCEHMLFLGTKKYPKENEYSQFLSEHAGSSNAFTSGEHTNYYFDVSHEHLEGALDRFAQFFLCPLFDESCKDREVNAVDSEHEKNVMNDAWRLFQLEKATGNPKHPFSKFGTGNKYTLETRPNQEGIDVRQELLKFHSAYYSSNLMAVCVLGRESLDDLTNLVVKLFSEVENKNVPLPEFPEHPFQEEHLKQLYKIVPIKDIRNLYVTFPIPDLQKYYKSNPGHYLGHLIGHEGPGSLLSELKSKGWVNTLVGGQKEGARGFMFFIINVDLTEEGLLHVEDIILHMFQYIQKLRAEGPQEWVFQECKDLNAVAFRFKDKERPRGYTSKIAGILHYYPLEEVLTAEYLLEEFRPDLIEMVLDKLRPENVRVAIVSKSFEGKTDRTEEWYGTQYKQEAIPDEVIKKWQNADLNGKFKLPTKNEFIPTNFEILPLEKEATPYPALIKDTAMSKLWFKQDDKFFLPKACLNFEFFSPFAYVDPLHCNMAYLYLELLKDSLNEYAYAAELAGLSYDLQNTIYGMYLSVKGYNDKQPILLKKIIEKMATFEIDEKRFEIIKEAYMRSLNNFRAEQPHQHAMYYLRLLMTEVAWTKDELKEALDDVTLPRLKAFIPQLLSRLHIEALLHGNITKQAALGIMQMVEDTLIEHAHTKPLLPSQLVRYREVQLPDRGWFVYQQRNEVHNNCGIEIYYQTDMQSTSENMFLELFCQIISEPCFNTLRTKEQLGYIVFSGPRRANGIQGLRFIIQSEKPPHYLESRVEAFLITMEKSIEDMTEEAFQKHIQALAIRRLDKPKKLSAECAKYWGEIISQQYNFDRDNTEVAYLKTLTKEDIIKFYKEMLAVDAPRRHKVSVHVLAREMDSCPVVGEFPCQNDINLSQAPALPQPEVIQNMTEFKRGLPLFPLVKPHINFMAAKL
smiles,measurement,setting,value
COc1ccc2[nH]c([S+]([O-])Cc3ncc(C)c(OC)c3C)nc2c1 (configuration not stated),inhibition,[1],41%
CCN1C(=O)C=CC1=O,inhibition,[2],Active
O=C(C[C@@H](Cc1ccc2ccccc2c1)n1cc(CNC(=O)c2ccc(F)cc2)nn1)NO,deltaT,[3],6.4 °C
same,IC50,[4],0.33 µM
O=C(O)CN(CCN(CC(=O)O)CC(=O)O)CC(=O)O,inhibition,[5],100%
Cc1c(OCC(F)(F)F)ccnc1C[S+]([O-])c1nc2ccccc2[nH]1 (configuration not stated),inhibition,[1],38%
COc1ccnc(C[S+]([O-])c2nc3cc(OC(F)F)ccc3[nH]2)c1OC (configuration not stated),inhibition,[1],0%
O=c1c(O)c(-c2cc(O)c(O)c(O)c2)oc2cc(O)cc(O)c12 [MYRICETIN],IC50,[6],100 µM
COc1ccc2[nH]c([S+]([O-])Cc3ncc(C)c(OC)c3C)nc2n1 (configuration not stated),inhibition,[1],35%
O=c1c2ccccc2[se]n1-c1ccccc1,deltaT,[3],1.3 °C
COCCCOc1ccnc(C[S+]([O-])c2nc3ccccc3[nH]2)c1C (configuration not stated) [RABEPRAZOLE],inhibition,[1],98%
same,IC50,[6],11 µM

# Reference: ChEMBL document CHEMBL4396912 (Eur J Med Chem, 2019)
